# Measurements from PubChem BioAssay AID1963843 (Molecular Pharmacology Branch, DTP, NCI, 2024).
# pIC50: −log10 of the molar value. Values joined by “and” are separate entries in the source; they are usually repeats but may differ in a detail not shown here. Equal entries are not always repeated.
# Test system: 616215-338-R-J1-PDC complex spheroid viability
# Test: Anticancer human tumor 616215-338-R-J1-PDC patient-derived colon adenocarcinoma cell line growth inhibition [POLQ]
# Details: for viability, T/C: stronger effect = lower value
# Procedure: Multicellular complex tumor spheroid response to Polymerase (POL) inhibitors (novobiocin, ART-558, RP6685) in combination with a variety of drugs and investigational agents in selected tumor cell lines
# The POL inhibitors (novobiocin, ART-558, and RP6685) were evaluated both individually and in combination with standard of care and investigational anticancer small molecules within a complex spheroid model of solid tumors. . Complex spheroids include a stromal component modeled by human endothelial cells (HUVEC) and fibroblasts modeled by human mesenchymal stem cells (MSCs). The concentration ranges selected for each drug and investigational agent were based upon clinically achievable concentrations if the clinical Cmax of the agent was known.
# Compounds. The drugs and investigational agents: novobiocin (NSC847541), ART-558 (NSC835418), RP-6685 (NSC848927), peposertib (NSC802822), ceralasertib (NSC780249), elimusertib (NSC800525), camonsertib (NSC841442), AZD-1390 (NSC803789), olaparib (NSC753686), talazoparib (NSC767125), rucaparib (NSC756644), sotorasib (NSC818433), MRTX-1133 (NSC836407), SN-38 (NSC673596), topotecan (NSC609699), epotoside (NSC141540), doxorubicin (NSC123127), gemcitabine (NSC613327), 5-fluorouracil (NSC19893), paclitaxel (NSC125973), vemurafenib (NSC761431), MSA-2 (NSC828583), SN-011 (NSC837082), adavosertib (NSC754352), prexasertib (NSC758257), carboplatin (NSC241240) and oxaliplatin (NSC266046), were obtained from the National Cancer Institute (NCI) Developmental Therapeutics Program Chemical Repository (21). The FDA-approved anticancer drug set is available from the Developmental Therapeutics Program at https://dtp.cancer.gov/organization/dscb/obtaining/. […] The stock solutions were prepared in dimethyl sulfoxide (DMSO, Sigma-Aldrich, St. Louis, MO, cat. D2650), except for the platinum compounds which were prepared in saline (Quality Biological, Gaithersburg, MD, cat. 114-055-101), at 800-fold the tested concentration and stored at -70 degrees C prior to their use. All drugs and investigational agents were tested over a range starting from a high concentration at or near the clinical Cmax and decreasing in half-log increments. If the clinical Cmax for an agent had not been determined, the highest concentration tested was 10 microM, except for SN-38, which was tested at a high concentration of 1 microM.
# Cell Culture. All cells were maintained in an incubator at 37 degrees C and 5% CO2 with 95% humidity. The PDC lines were cultured according to standard operating procedures established by the NCI PDMR (https://pdmr.cancer.gov). Table 3 of the manuscript, lists the cell lines along with the number of the three cell types plated to form the mct-spheroids and media for tumor cell growth. After thawing, all PDC lines, except 997537-175-T-J1-PDC and 415267-285-R-J2-PDC, were cultured in Matrigel-coated flasks prepared with a working solution of 1X Ham's F-12 nutrient mix, without supplementation (Thermo Fisher Scientific, cat. 11765054), 100 U/mL penicillin-streptomycin (Thermo Fisher Scientific, cat. 15140122), and 2.5% Matrigel (Corning Inc., Corning, NY, cat. 354248) for the first three passages. The two PDC lines 997537-175-T-J1-PDC and 415267-285-R-J2-PDC were cultured on uncoated flasks. The 857933-349-R-J2-PDC line was cultured in 6C/Colon 1B media containing advanced DMEM/F-12 (Thermo Fisher Scientific, cat. 12634028), 10 mM HEPES (Thermo Fisher Scientific, cat. 15630080), 1X GlutaMAX supplement (Thermo Fisher Scientific, cat. 35050061), 0.1 mg/mL primocin (InvivoGen, San Diego, CA, cat. ant-pm-2), 10% defined fetal bovine serum, heat inactivated (HyClone Laboratories Inc., Logan, UT, cat. SH30070.03HI), 50% L-WRN conditioned media (ATCC, cat. CRL-3276), 1.25 mM N-Acetyl-L-cysteine (Sigma-Aldrich, cat. A9165), 10 mM nicotinamide (Sigma-Aldrich, cat. N0636), 1X B-27 supplement (Thermo Fisher Scientific, cat. 17504044), 1X N-2 supplement (Thermo Fisher Scientific, cat. […]
# [1] = curve of first compound, second compound 0.0316 µM
# [2] = curve of first compound, second compound 0.1 µM
# [3] = curve of first compound, second compound 0.316 µM
# [4] = curve of first compound, second compound 1 µM
# [5] = curve of first compound, second compound 3.16 µM
# [6] = curve of first compound, second compound 10 µM
# [7] = second compound 0.0316 µM, first compound 0.0316 µM
# [8] = second compound 0.0316 µM, first compound 0.1 µM
# [9] = second compound 0.0316 µM, first compound 0.316 µM
# [10] = second compound 0.0316 µM, first compound 1 µM
# [11] = second compound 0.0316 µM, first compound 3.16 µM
# [12] = second compound 0.0316 µM, first compound 10 µM
# [13] = second compound 0.1 µM, first compound 0.0316 µM
# [14] = second compound 0.1 µM, first compound 0.1 µM
# [15] = second compound 0.1 µM, first compound 0.316 µM
# [16] = second compound 0.1 µM, first compound 1 µM
# [17] = second compound 0.1 µM, first compound 3.16 µM
# [18] = second compound 0.1 µM, first compound 10 µM
# [19] = second compound 0.316 µM, first compound 0.0316 µM
# [20] = second compound 0.316 µM, first compound 0.1 µM
# [21] = second compound 0.316 µM, first compound 0.316 µM
# [22] = second compound 0.316 µM, first compound 1 µM
# [23] = second compound 0.316 µM, first compound 3.16 µM
# [24] = second compound 0.316 µM, first compound 10 µM
# [25] = second compound 1 µM, first compound 0.0316 µM
# [26] = second compound 1 µM, first compound 0.1 µM
# [27] = second compound 1 µM, first compound 0.316 µM
# [28] = second compound 1 µM, first compound 1 µM
# [29] = second compound 1 µM, first compound 3.16 µM
# [30] = second compound 1 µM, first compound 10 µM
# [31] = second compound 3.16 µM, first compound 0.0316 µM
# [32] = second compound 3.16 µM, first compound 0.1 µM
# [33] = second compound 3.16 µM, first compound 0.316 µM
# [34] = second compound 3.16 µM, first compound 1 µM
# [35] = second compound 3.16 µM, first compound 3.16 µM
# [36] = second compound 3.16 µM, first compound 10 µM
# [37] = second compound 10 µM, first compound 0.0316 µM
# [38] = second compound 10 µM, first compound 0.1 µM
# [39] = second compound 10 µM, first compound 0.316 µM
# [40] = second compound 10 µM, first compound 1 µM
# [41] = second compound 10 µM, first compound 3.16 µM
# [42] = second compound 10 µM, first compound 10 µM
# 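Note: spheroids exposed to compounds for one week before readout.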
# 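Throughout, for viability, T/C: percent viability relative to DMSO vehicle wells taken as 100%.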
smiles,measurement,setting,value
CC(C)n1c(=O)n(C)c2cnc3cc(F)c(-c4ccc(OCCCN5CCCCC5)nc4)cc3c21 + COC1C(OC(N)=O)C(O)C(Oc2ccc3c(O)c(NC(=O)c4ccc(O)c(CC=C(C)C)c4)c(=O)oc3c2C)OC1(C)C,pIC50,[1],< 5.00
same,pIC50,[2],< 5.00
same,pIC50,[3],< 5.00
same,pIC50,[4],< 5.00
same,pIC50,[5],< 5.00
same,pIC50,[6],< 5.00
same,"viability, T/C",[7],92.8%
same,"viability, T/C",[8],94.6%
same,"viability, T/C",[9],104%
same,"viability, T/C",[10],109%
same,"viability, T/C",[11],130%
same,"viability, T/C",[12],104%
same,"viability, T/C",[13],97.8%
same,"viability, T/C",[14],98.6%
same,"viability, T/C",[15],101%
same,"viability, T/C",[16],108%
same,"viability, T/C",[17],112%
same,"viability, T/C",[18],113%
same,"viability, T/C",[19],108%
same,"viability, T/C",[20],98.6%
same,"viability, T/C",[21],104%
same,"viability, T/C",[22],99.6%
same,"viability, T/C",[23],121%
same,"viability, T/C",[24],99.5%
same,"viability, T/C",[25],117%
same,"viability, T/C",[26],117%
same,"viability, T/C",[27],95.2%
same,"viability, T/C",[28],106%
same,"viability, T/C",[29],116%
same,"viability, T/C",[30],102%
same,"viability, T/C",[31],112%
same,"viability, T/C",[32],111%
same,"viability, T/C",[33],109%
same,"viability, T/C",[34],105%
same,"viability, T/C",[35],99.6%
same,"viability, T/C",[36],93.2%
same,"viability, T/C",[37],99.9%
same,"viability, T/C",[38],102%
same,"viability, T/C",[39],101%
same,"viability, T/C",[40],102%
same,"viability, T/C",[41],107%
same,"viability, T/C",[42],94.5%
O=C(c1cc(Cc2n[nH]c(=O)c3ccccc23)ccc1F)N1CCN(C(=O)C2CC2)CC1,"viability, T/C",compound 0.0316 µM,89.5% and 67.6% and 97.3%
same,"viability, T/C",compound 0.1 µM,103% and 72.8% and 110%
same,"viability, T/C",compound 0.316 µM,102% and 71.6% and 106%
same,"viability, T/C",compound 1 µM,101% (2×) and 72.6%
same,"viability, T/C",compound 3.16 µM,101% and 73.1% and 87.7%
same,"viability, T/C",compound 10 µM,99.3% and 58.1% and 60.9%
same,pIC50,curve of compound,< 5.00
O=C(Nc1ccc(O)c(NS(=O)(=O)c2ccc(F)cc2)c1)c1ccc(-c2ccccc2)cc1,"viability, T/C",compound 0.0316 µM,104% and 110% and 106%
same,"viability, T/C",compound 0.1 µM,107% and 100% and 90.8%
same,"viability, T/C",compound 0.316 µM,107% and 108% and 104%
same,"viability, T/C",compound 1 µM,108% and 92.6% and 100%
same,"viability, T/C",compound 3.16 µM,102% and 106% and 114%
same,"viability, T/C",compound 10 µM,60.7% and 49.2% and 101%
same,pIC50,curve of compound,< 5.00 and 5.01
C=CCn1c(=O)c2cnc(Nc3ccc(N4CCN(C)CC4)cc3)nc2n1-c1cccc(C(C)(C)O)n1,"viability, T/C",compound 0.00316 µM,98.4% and 98.6% and 104%
same,"viability, T/C",compound 0.01 µM,101% and 96.2% and 96.8%
same,"viability, T/C",compound 0.0316 µM,105% and 102% and 99.9%
same,"viability, T/C",compound 0.1 µM,93.8% and 88.6% and 96.6%
same,"viability, T/C",compound 0.316 µM,88.4% and 64% and 54.5%
same,"viability, T/C",compound 1 µM,60.4% and 31.4% and 34.6%
same,pIC50,curve of compound,< 6.00 and 6.29 and 6.39
C=CC(=O)N1CCN(c2nc(=O)n(-c3c(C)ccnc3C(C)C)c3nc(-c4c(O)cccc4F)c(F)cc23)C(C)C1 (stereo not given) + Cc1cccc(N(C)C(=O)C2C(O)CCN2c2nc(C)cc(C(F)(F)F)c2C#N)c1,pIC50,[1],< 5.00
same,pIC50,[2],< 5.00
same,pIC50,[3],< 5.00
same,pIC50,[4],< 5.00
same,pIC50,[5],< 5.00
same,pIC50,[6],< 5.00
same,"viability, T/C",[7],102%
same,"viability, T/C",[8],95.3%
same,"viability, T/C",[9],95.8%
same,"viability, T/C",[10],109%
same,"viability, T/C",[11],100%
same,"viability, T/C",[12],98.3%
same,"viability, T/C",[13],95.6%
same,"viability, T/C",[14],95.3%
same,"viability, T/C",[15],88.2%
same,"viability, T/C",[16],105%
same,"viability, T/C",[17],104%
same,"viability, T/C",[18],90.3%
same,"viability, T/C",[19],93.8%
same,"viability, T/C",[20],99.2%
same,"viability, T/C",[21],99.6%
same,"viability, T/C",[22],104%
same,"viability, T/C",[23],108%
same,"viability, T/C",[24],97%
same,"viability, T/C",[25],96.7%
same,"viability, T/C",[26],86%
same,"viability, T/C",[27],88.1%
same,"viability, T/C",[28],101%
same,"viability, T/C",[29],105%
same,"viability, T/C",[30],86.2%
same,"viability, T/C",[31],96.6%
same,"viability, T/C",[32],122%
same,"viability, T/C",[33],103%
same,"viability, T/C",[34],101%
same,"viability, T/C",[35],97.6%
same,"viability, T/C",[36],91.6%
same,"viability, T/C",[37],105%
same,"viability, T/C",[38],99.6%
same,"viability, T/C",[39],90.9%
same,"viability, T/C",[40],104%
same,"viability, T/C",[41],95.3%
same,"viability, T/C",[42],73%
